In patent publication US20130217778A1, “METHODS AND COMPOSITIONS FOR THE IMPROVEMENT OF SKELETAL MUSCLE FUNCTION IN A MAMMAL” (priority 2010, published 2013):

Tests used:
Format in all cases: cell-based
[1] = test system: human Duchenne muscular dystrophy (DMD) muscle tissue (mBAM); experiment: MFAS fatigue assay of human DMD mBAMs; details: low concentrations, FIGS. 10A-10C
Protocol: (§1) High glucose tissue culture medium (4.5 g/l) was used in all experiments to maintain glucose levels well above normal human blood plasma levels (0.9 to 1.8 g/l) and, thereby, minimize drug action through increased glucose availability to the muscle cells. Varying concentrations of metformin (Sigma-Aldrich Cat. No. D15,095-9; 1,1-dimethylbiguanide hydrochloride) were added to tissue culture medium of mBAMs when the mBAMs had reached a plateau of maximal tetanic force, which was measured in a MyoForce Analysis System (MFAS™) 24 hours later. Every 24 hours, fresh metformin was added to fresh tissue culture medium, and tetanic forces were measured every 24 hours for 3-4 days. Fatigue was assayed after 3-4 days of metformin treatment by 15-20 repetitive tetanic stimulations of each mBAM at 14V, 60 Hz for 2 seconds every 4-5 seconds. Force is determined after each stimulation and compared to the initial force determined after the first stimulation relative to untreated controls. (Mean±S.E.M. of 3-8 samples per group was calculated and statistical analyses performed by t-tests.)
The immortalized muscle cells were tissue engineered into contractile muscle tissue (mBAMs), and muscle force and fatigue were measured as described above. High glucose tissue culture medium (4.5 g/l) was used to maintain glucose levels well above normal human blood plasma levels (0.9 to 1.8 g/l) and, thereby, minimize drug action through increased glucose availability to the muscle cells. […] Every 24 hours, fresh biguanide was added in fresh medium and tetanic force measured for a total of 3-4 days.

[2] = test system: normal human muscle tissue (mBAM); experiment: MFAS tetanic force of mBAMs from normal human vastus lateralis muscle cells; details: 3-4 days of exposure, FIGS. 7A-7D
Protocol: as §1

[3] = test system: mdx murine muscle tissue (mBAM); experiment: MFAS maximal tetanic force of mBAMs from mdx mouse muscle cells; details: low concentrations experiment, four days of exposure, FIG. 4A
Text: (§2) Conditionally immortalized skeletal muscle cells from the mdx mouse muscle (Morgan et al., Dev Biol. 162: 486-498, 1994) were tissue engineered into contractile muscle tissue (mBAMs), as described herein. (See also, e.g., Vandenburgh et al., Muscle and Nerve 37: 438-447, 2008; Vandenburgh et al., Treat NMD Meeting, 2009). Briefly, several hundred thousand proliferating myoblasts were mixed with a solution of extracellular matrix (collagen or fibrin) and pipetted into custom wells containing two flexible “posts” (FIG. 1A). The cell/matrix mixture gelled around the tops of the posts, forming a defined tubular structure (FIG. 1B). […] Maximal tetanic force (i.e., muscle strength) was measured by imaging the deflection of the attachment posts and converting the distance of deflection into force, as illustrated in FIGS. 2A-2B.
(§3) High glucose tissue culture medium (4.5 g/l) was used in all experiments to maintain glucose levels well above normal human blood plasma levels (0.9 to 1.8 g/l) and, thereby, minimize drug action through increased glucose availability to the muscle cells. Varying concentrations of metformin (Sigma-Aldrich Cat. No. D15,095-9; 1,1-dimethylbiguanide hydrochloride) were added to tissue culture medium of mBAMs when the mBAMs had reached a plateau of maximal tetanic force, which was measured in a MyoForce Analysis System (MFAS™) 24 hours later. […]

[4] = test system: mdx murine skeletal muscle tissue (mBAM); experiment: MFAS fatigue assay (repetitive tetanic stimulation) of mdx mouse mBAMs; details: repetitive tetanic stimulation after 3-4 days of treatment, FIG. 4B
Text: as §2, §3

[5] = test system: normal mouse skeletal muscle tissue (mBAM); experiment: MFAS tetanic force of mBAMs from normal mouse leg muscle cells
Protocol: as §1
High glucose tissue culture medium (4.5 g/l) was used in all experiments to maintain glucose levels well above normal human blood plasma levels (0.9 to 1.8 g/l) and, thereby, minimize drug action through increased glucose availability to the muscle cells.

[6] = test system: human Duchenne muscular dystrophy (DMD) muscle tissue (mBAM); experiment: MFAS tetanic force of mBAMs from immortalized Duchenne muscular dystrophy muscle cells; details: 3-4 days of exposure, FIGS. 9A, 9B, 9D
Protocol: as §1
The immortalized muscle cells were tissue engineered into contractile muscle tissue (mBAMs), and muscle force and fatigue were measured as described above. […] Every 24 hours, fresh biguanide was added in fresh medium and tetanic force measured for a total of 3-4 days.

CCCCNC(=N)NC(=N)N [buformin, Buformin]
effect on the rate of muscle fatigue with repetitive stimulations [1]: decreased the rate of muscle fatigue
concentrations that increased tetanic force generated by the muscle tissue [2]: less than 0.1 μg/ml

CN(C)C(=N)NC(=N)N [metformin, 1,1-dimethylimido-dicarbonimidic diamide]
effect on the rate of muscle fatigue with repetitive stimulations [1]: decreased the rate of muscle fatigue
concentration that significantly increased maximal tetanic force generated by mBAM muscle tissue [3]: 0.0006 µg/mL
concentration that significantly decreased the rate of muscle fatigue [4]: 0.000001 µg/mL
concentration that increased tetanic force generated by the muscle tissue ([5]; 3-4 days of exposure, FIGS. 5A-5B): 0.0006 µg/mL

N=C(N)NC(=N)NCCc1ccccc1 [phenformin, Phenformin]
effect on the rate of muscle fatigue with repetitive stimulations [1]: decreased the rate of muscle fatigue

CC(C)NC(=N)NC(=N)Nc1ccc(Cl)cc1 [proguanil, 1-(4-chlorophenyl)-5-isopropyl-biguanide]
concentrations that increased tetanic force generated by the muscle tissue [6]: ≤ 0.00006 µg/mL
concentrations that increased tetanic force generated by the muscle tissue [2]: less than 0.0001 μg/ml
concentration that significantly increased tetanic force ([5]; after 3 days of treatment, FIG. 5C): 0.001 µg/mL
